PubChem BioAssay AID1845212 (Molecular Pharmacology Branch, DTP, NCI, 2023)

Test system: NCI-H719 tumor spheroids, viability
Experiment: Anticancer human tumor NCI-H719 cell line growth inhibition;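 also: spheroids exposed to compounds for seven days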;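 as to viability, T/C: percent viability relative to DMSO vehicle control as 100%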
Conditions: spheroids with HUVEC and MSC; for IC50: curve of first compound; for viability, T/C: stronger effect = lower value
From the text: Multicellular complex tumor spheroid response to DNA repair inhibitors in combination with DNA-damaging drugs
This study explores the anticancer activities of DNA-damaging drugs and inhibitors of DNA damage repair, both as single agents and in combinations. Complex tumor spheroids comprised of malignant cells, endothelial cells and mesenchymal stem cells served as an in vitro model for human solid tumors. This model system incorporates physiologically relevant features and patient-derived or established malignant cell lines with clinically relevant genetic alterations from many tumor types. Twenty-six patient-derived or established malignant cell lines were evaluated representing sarcoma, melanoma, small cell lung cancer (SCLC), non-small cell lung cancer (NSCLC), as well as bladder, ovarian and pancreatic cancers. The concentration ranges selected for each drug and investigational agent were based upon clinically achievable concentrations if the clinical Cmax of the agent was known.
Compounds. The drugs and compounds olaparib (NSC753686), talazoparib (NSC767125), berzosertib (NSC777718), elimusertib (NSC800525), nedisertib (NSC802822), VX-984 (NSC792969), AZD-1390 (NSC803789), temozolomide (NSC362856), topotecan (NSC609699), trabectedin (NSC813783), staurosporine (NSC755774), and gemcitabine (NSC613327) were obtained from the National Cancer Institute (NCI) Developmental Therapeutics Program Chemical Repository. The FDA-approved anticancer drug set is available from the Developmental Therapeutics Program at https://dtp.cancer.gov/organization/dscb/obtaining/available_plates.htm. […] The stock solutions were prepared in dimethyl sulfoxide (DMSO, Sigma-Aldrich, St. Louis, MO, cat. D2650) at 400-fold the tested concentration and stored at -70 degrees C. Prior to their use, the stock solutions were diluted in fresh medium and the final DMSO concentration in the assay was 0.25% (v/v). All drugs and investigational agents were tested over a range starting from a high concentration at or near the clinical Cmax and decreasing in half-log increments. If the clinical Cmax for an agent had not been determined, the highest concentration tested was 10 microM.
Cell Lines. The patient-derived cancer cell (PDC) lines: 156681-154-R-J1-PDC, 283228-195-R-J1-PDC, 287954-098-R-J1-PDC, 292921-168-R-J2-PDC, 349418-098-R-PDC, 425362-245-T-J1-PDC, 556581-035-R-J1-PDC, and BL0293-F563-PDC were received from the NCI Patient-Derived Models Repository (PDMR, https://pdmr.cancer.gov). The established cell lines HS-SY-2 (RRID:CVCL_8719), MPNST, and SYO-1 (RRID:CVCL_7146) were obtained from the Sloan Kettering Institute. The alveolar soft parts sarcoma cell line ASPS-1 (RRID:CVCL_S738) was established at the NCI and grown from internal seed stocks. The following established cell lines were purchased from the American Type Culture Collection (ATCC, Manassas, VA): G-401 (ATCC, cat. CRL-1441, RRID:CVCL_0270), SW982 (ATCC, cat. HTB-93, RRID:CVCL_1734), VA-ES-BJ (ATCC, cat. CRL-2138, RRID:CVCL_1785), NCI-H719 (ATCC, cat. CRL-5837, RRID:CVCL_1582), NCI-H196 (ATCC, cat. CRL-5823, RRID:CVCL_1509), NCI-H841 (ATCC, cat. CRL-5845, RRID:CVCL_1595), NCI-H1618 (ATCC, cat. CRL-5879, RRID:CVCL_1480), NCI-H1876 (ATCC, cat. CRL-5902, RRID:CVCL_1503), DMS 114 (ATCC, cat. CRL-2066; RRID:CVCL_1174), NCI-H211 (ATCC, cat. CRL-5824; RRID:CVCL_1529), and SW 1271 (ATCC, cat. CRL-2177, RRID:CVCL_1716). The small cell lung cancer cell line COR-L88 was purchased from Sigma-Aldrich (cat. 92031917-1VL, RRID:CVCL_1141). The non-small cell lung cancer cell lines NCI-H226 (RRID:CVCL_1544) and NCI-H322M (RRID:CVCL_1557) were established at the NCI and grown from internal seed stocks. Pooled donor human umbilical vein endothelial cells (HUVEC, Lonza, cat. CC-2519) and human mesenchymal stem cells (hMSC, Lonza, cat. PT-2501) were purchased from Lonza (Walkersville, MD).
Cell Culture. All cells were maintained in an incubator at 37 degrees C and 5% CO2 with 95% humidity. […]

Cc1sc2c(c1C)C(c1ccc(Cl)cc1)=NC(CC(=O)Nc1ccc(O)cc1)c1nnc(C)n1-2 (stereo not given) + CC[C@@]1(O)C(=O)OCc2c1cc1n(c2=O)Cc2cc3c(CN(C)C)c(O)ccc3nc2-1
IC50 (second compound 0.003 µM): < 9.49 nM
IC50 (second compound 0.00949 µM): < 9.49 nM
IC50 (second compound 0.03 µM): < 9.49 nM
IC50 (second compound 0.0949 µM): < 9.49 nM
IC50 (second compound 0.3 µM): < 9.49 nM
viability, T/C (second compound 0.003 µM, first compound 0.00949 µM): 42.6%
viability, T/C (second compound 0.003 µM, first compound 0.03 µM): 31.5%
viability, T/C (second compound 0.003 µM, first compound 0.0949 µM): 9.86%
viability, T/C (second compound 0.003 µM, first compound 0.3 µM): 4.37%
viability, T/C (second compound 0.003 µM, first compound 0.949 µM): 2.57%
viability, T/C (second compound 0.003 µM, first compound 3 µM): 1.57%
viability, T/C (second compound 0.00949 µM, first compound 0.00949 µM): 5.64%
viability, T/C (second compound 0.00949 µM, first compound 0.03 µM): 5.14%
viability, T/C (second compound 0.00949 µM, first compound 0.0949 µM): 5%
viability, T/C (second compound 0.00949 µM, first compound 0.3 µM): 4.27%
viability, T/C (second compound 0.00949 µM, first compound 0.949 µM): 2.51%
viability, T/C (second compound 0.00949 µM, first compound 3 µM): 2.02%
viability, T/C (second compound 0.03 µM, first compound 0.00949 µM): 4.76%
viability, T/C (second compound 0.03 µM, first compound 0.03 µM): 4.99%
viability, T/C (second compound 0.03 µM, first compound 0.0949 µM): 4.72%
viability, T/C (second compound 0.03 µM, first compound 0.3 µM): 3.7%
viability, T/C (second compound 0.03 µM, first compound 0.949 µM): 2.76%
viability, T/C (second compound 0.03 µM, first compound 3 µM): 1.87%
viability, T/C (second compound 0.0949 µM, first compound 0.00949 µM): 4.97%
viability, T/C (second compound 0.0949 µM, first compound 0.03 µM): 4.42%
viability, T/C (second compound 0.0949 µM, first compound 0.0949 µM): 4.02%
viability, T/C (second compound 0.0949 µM, first compound 0.3 µM): 3.47%
viability, T/C (second compound 0.0949 µM, first compound 0.949 µM): 2.28%
viability, T/C (second compound 0.0949 µM, first compound 3 µM): 1.46%
viability, T/C (second compound 0.3 µM, first compound 0.00949 µM): 5.22%
viability, T/C (second compound 0.3 µM, first compound 0.03 µM): 4.7%
viability, T/C (second compound 0.3 µM, first compound 0.0949 µM): 3.68%
viability, T/C (second compound 0.3 µM, first compound 0.3 µM): 2.55%
viability, T/C (second compound 0.3 µM, first compound 0.949 µM): 1.67%
viability, T/C (second compound 0.3 µM, first compound 3 µM): 0.66%
